We go through 10 molecules from ChEMBL document CHEMBL1201862, “PubChem BioAssay data set” (2004).

Holding throughout (experiment): DTP human tumour cell line panel, 48 h
Assay [1] relates to NCI-H460.
For assay [2], the system named is Malme-3M.
The test system of assay [3] is K562.
Assay [4] deals with SNB-75.
Assay [5] concerns UO-31.
Assay [6] concerns SNB-19.
Assay [7] concerns MCF7.
Assay [8] deals with OVCAR-8.
The subject of assay [9] is EKVX.
The subject of assay [10] is SF-539.
Assay [11] deals with PC-3.
Assay [12] deals with HOP-62.
The test system of assay [13] is SK-MEL-5.
Assay [14] deals with Hs-578T.
Assay [15] has as its system HL-60.
For assay [16], the system named is HCC 2998.
Assay [17] concerns HOP-92.
Assay [18] relates to OVCAR-3.
The test system of assay [19] is MDA-N.
For assay [20], the system named is CCRF-CEM.

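The compound was tested at five concentrations on cells cultured in 96-well plates, with a 48-hour exposure period. GI50 = concentration required for 50% inhibition of growth.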 Calls of active or inactive are those of the source. No stated cut-off is given here; in the data, active = GI50 up to about 1.1 µM and inactive = higher. A value given as a limit tells only on which side of the number the result lay.

One may read the GI50 as the concentration that inhibits growth by half. On to `Nc1nc(-c2ccccc2)c(-c2ccccc2)c(-c2nc(N)nc(-c3ccccc3)c2-c2ccccc2)n1`, for which the GI50 in [1] was 74.3 µM (inactive); in [2], > 100 µM (inactive); in [3], > 100 µM (inactive); in assay [4] it was 88.7 µM (inactive); in assay [5] it was > 100 µM (inactive); in [6] it was > 100 µM (inactive). Further, the GI50 in [7] was 49.4 µM (inactive); in assay [8] it was > 100 µM (inactive); in [9] it was 63.7 µM (inactive); in [10] it was > 100 µM (inactive); in [11] it was > 100 µM (inactive); in [12], > 100 µM (inactive). Moreover, the GI50 is > 100 µM (inactive) in [13]; > 100 µM (inactive) in assay [14]; > 100 µM (inactive) in assay [15]; 49 µM (inactive) in assay [16]; > 100 µM (inactive) in assay [17]; 83.2 µM (inactive) in assay [18]. Moreover, the GI50 in assay [19] is 75.7 µM (inactive).
`COCCOC1=CC(=O)c2c(O)ccc(O)c2C1=O`: the GI50 in assay [1] was 1.58 µM (inactive); in assay [2], 0.167 µM (active); in assay [3] it was 2.69 µM (inactive); in [4] it was 2 µM (inactive); in [5] it was 2.17 µM (inactive); in [6], 2.3 µM (inactive). Further, the GI50 in [7] is 0.275 µM (active); in assay [8], 1.73 µM (inactive); in assay [9], 2.14 µM (inactive); in assay [10], 1.73 µM (inactive); in assay [11], 2.34 µM (inactive); in [12] it was 0.724 µM (active). Further, the GI50 was 0.163 µM (active) in assay [13]; 4.04 µM (inactive) in assay [14]; 0.52 µM (active) in assay [15]; 4.3 µM (inactive) in assay [20]; 2.17 µM (inactive) in [16]; 2.13 µM (inactive) in assay [17]. The GI50 in assay [18] is 0.662 µM (active); in [19], 0.186 µM (active).
With `Cc1sc2nc3n(c(=O)c2c1C)N=C(c1ccc(Cl)cc1)CS3`, the GI50 was > 100 µM (inactive) in [1]; > 100 µM (inactive) in assay [2]; > 100 µM (inactive) in assay [3]; 48.2 µM (inactive) in assay [4]; > 100 µM (inactive) in assay [5]; > 100 µM (inactive) in assay [7]. Besides, the GI50 in assay [8] was > 100 µM (inactive); in assay [9], > 100 µM (inactive); in assay [10], > 100 µM (inactive); in [11], > 100 µM (inactive); in assay [12] it was 66.1 µM (inactive); in assay [13] it was > 100 µM (inactive). Besides, the GI50 in assay [14] was 82.6 µM (inactive); in assay [15] it was > 100 µM (inactive); in assay [20] it was > 100 µM (inactive); in assay [16], > 100 µM (inactive); in [17], > 100 µM (inactive); in [18] it was > 100 µM (inactive). The GI50 in assay [19] is > 100 µM (inactive).
Regarding `N=C(N)n1nc2c(c1O)CCC2`, the GI50 in assay [1], in [2], in assay [3], in [4], in [5] and in assay [6] was > 100 µM (inactive) each time. Also, the GI50 in assay [7], in assay [8], in assay [10], in assay [11], in assay [12] and in [13] was > 100 µM (inactive) throughout. Further, the GI50 in assay [14], in assay [15], in assay [20], in assay [16], in [17] and in [18] was > 100 µM (inactive) throughout. Moreover, the GI50 in assay [19] is > 100 µM (inactive).
As to `O=S(=O)(O)c1ccc(/N=N/c2ccc(/N=N/c3c(O)ccc4ccccc34)cc2)cc1`, the GI50 in assay [1] is > 100 µM (inactive); in [2], 35.6 µM (inactive); in assay [3], > 100 µM (inactive); in assay [4] it was > 100 µM (inactive); in [5] it was > 100 µM (inactive); in assay [6], > 100 µM (inactive). Moreover, the GI50 is > 100 µM (inactive) in [7]; > 100 µM (inactive) in [8]; > 100 µM (inactive) in assay [9]; > 100 µM (inactive) in assay [11]; > 100 µM (inactive) in [12]; > 91.8 µM (inactive) in assay [13]. The GI50 in assay [14] is > 100 µM (inactive); in assay [15] it was 0.893 µM (active); in assay [20], > 51.3 µM (inactive); in assay [16] it was > 100 µM (inactive); in [17] it was > 100 µM (inactive); in assay [18] it was > 100 µM (inactive). The GI50 in assay [19] is > 100 µM (inactive).
As for `CCOC(=O)CC1(Cc2ccc(OCc3ccccc3)cc2)C(=O)OC(c2ccccc2)N1C(=O)c1ccccc1` (centres undefined), the GI50 in assay [1] is 21.5 µM (inactive); in assay [2], > 100 µM (inactive); in [3], > 100 µM (inactive); in [5], 45.5 µM (inactive); in assay [6], > 100 µM (inactive); in assay [7], > 100 µM (inactive). Further, the GI50 in assay [8], in [9], in [10], in assay [11], in assay [12] and in [13] was > 100 µM (inactive) in each case. In addition, the GI50 in [14] was > 100 µM (inactive); in [15], > 100 µM (inactive); in [20] it was > 100 µM (inactive); in assay [16], 28 µM (inactive); in assay [17] it was > 100 µM (inactive); in assay [18], > 100 µM (inactive). In addition, in [19], the GI50 is > 100 µM (inactive).
Consider `NC(=O)NCCCC(NC(=O)OCCCCn1ccc(=O)[nH]c1=O)C(=O)O` (centres undefined), for which the GI50 in assay [1], in assay [3], in assay [4], in assay [5], in assay [6] and in assay [7] was > 100 µM (inactive) throughout. The GI50 in [8], in assay [9], in assay [10], in assay [11], in assay [12] and in [14] was > 100 µM (inactive) throughout. For the same molecule, the GI50 in assay [15], in assay [20], in assay [16], in [17], in assay [18] and in assay [19] was > 100 µM (inactive) throughout.
Take `N#CC1CCN2N=C(c3ccccc3)SC12c1ccccc1` (centres undefined): the GI50 is 26.1 µM (inactive) in [1]; > 100 µM (inactive) in assay [2]; 28.6 µM (inactive) in assay [3]; > 100 µM (inactive) in assay [4]; 35.1 µM (inactive) in [5]; > 100 µM (inactive) in assay [6]. For the same molecule, the GI50 is 31.1 µM (inactive) in assay [7]; 76.6 µM (inactive) in assay [8]; 18.8 µM (inactive) in [9]; 78.2 µM (inactive) in assay [10]; 35.7 µM (inactive) in assay [11]; > 100 µM (inactive) in assay [12]. In addition, the GI50 in assay [13] was 34.4 µM (inactive); in assay [14], 88.3 µM (inactive); in [15], 32.9 µM (inactive); in assay [16], 26.7 µM (inactive); in [17], 58.1 µM (inactive); in assay [19], 54.7 µM (inactive).
As to `Cc1nnc(N2C(=O)C(=Cc3ccc(Cl)cc3)N=C2c2ccc(Cl)cc2)nc1/C=C\c1ccc(N(C)C)cc1`, the GI50 is > 100 µM (inactive) in assay [1]; > 100 µM (inactive) in assay [2]; 73.3 µM (inactive) in assay [3]; > 100 µM (inactive) in [4]; 50.8 µM (inactive) in assay [5]; > 100 µM (inactive) in assay [6]. The GI50 in assay [7], in assay [8], in assay [9], in [11], in [12] and in assay [13] was > 100 µM (inactive) in each case. Further, the GI50 in [14] was > 100 µM (inactive); in assay [15], 93.8 µM (inactive); in assay [20] it was > 100 µM (inactive); in assay [16] it was > 100 µM (inactive); in assay [17], > 100 µM (inactive); in assay [18], > 100 µM (inactive). Further, the GI50 in assay [19] is 73.1 µM (inactive).
For `O=C1NC(S(=O)(=O)O)=NNC12c1ccccc1-c1ccccc12`, the GI50 in assay [1], in assay [2], in assay [3], in assay [4], in [5] and in assay [6] was > 10 µM (inactive) in each case. Moreover, the GI50 in assay [7], in assay [8], in assay [9], in assay [10], in [11] and in assay [12] was > 10 µM (inactive) each time. Moreover, the GI50 in [13], in assay [14], in assay [15], in assay [20], in [16] and in assay [17] was > 10 µM (inactive) throughout. Besides, in assay [19], the GI50 is > 10 µM (inactive).
